How the values were obtained:
[1] = test system: elastase activity in the blister fluid; test: Ex vivo bullous pemphigoid blister fluid: degradation of recombinant BP180 antigen; format: biochemical, human; details: added to blister fluid; autoradiography after gel electrophoresis; vs untreated control
Procedure: The blister fluid in patients with bullous pemphigoid was sampled in an ex vivo model (Verraes et al., 2001). Recombinant radioactively-labeled BP180 antigen, the target antigen in this disease, was then added to the blister fluid and decay determined autoradiographically after gel electrophoresis. For inhibition of elastase activity in the blister fluid either D2O or the elastase inhibitor chloromethyl ketone was added to it. An untreated control served as comparison. Both with chloromethyl ketone and with D2O the degradation of the recombinant BP180 antigen could be inhibited, whereas the protein was almost completely degraded by the untreated blister fluid.

Syrian Gold hamsters = test: D2O aerosols in an animal model of COPD (HNE-induced hemorrhage); format: in vivo, hamster
Procedure: The employed H2O was distilled and ion-exchanged. Both D2O and H2O were sterile. A Pari LC Plus universal atomizer (PARI GmbH, Starnberg, Germany) was used for aerosolization combined with a Pari universal compressor, which generated 200 mg/min polydispersed aerosol with an average particle size (median diameter) of 2.5 μm for pure H2O and pure D2O and 2.5-4.5 μm for H2O and D2O with additional non-pharmaceutical and/or pharmaceutical agents (operating pressure 2.0 bar, flow rate of the compressor air was 6.0 L/min). The particle size measurement occurred with dynamic light scattering in a flow cell. Aerosol generation occurred at a temperature of 37° C. by corresponding thermostating of the atomizer in a water bath thermostat.
Male Syrian Gold hamsters (average weight 105 g±8 g) were divided into two groups (experimental group and control group) of six hamsters each. The animals of both groups were anesthetized intraperitoneally (ketamine 95 mg/kg and xylazine 17 mg/kg) and then intubated endotracheally by direct laryngoscopy. Both groups received 100 μL of human neutrophil elastase (500 μg/mL in sterile 0.9% NaCl solution) instilled. […] For BAL 2.5 mL 0.9% NaCl solution was repeatedly instilled (total of three times) and the hemoglobin concentration then determined in the instillate speetrophotometrically. […] For the experimental group an average hemoglobin value of 120±20 mOD was measured. […]

[2] = test system: patients with type 1 sensitization and allergic rhinitis; test: Nasal spray in allergic rhinitis; format: in vivo, human; details: isotonic saline using 70% D2O, 6 times a day, 14 days, vs H2O group
Procedure: A solution with D2O was prepared accordingly for application as nasal spray. […] The number of sneezing attacks was determined and the intensity of runny nose and nasal itching measured by visual analog scales as parameters. For this purpose a patient diary was used.
A solution with D2O was prepared according to example 21 for use as nasal spray. […] The number of sneezing attacks was determined as parameter and the intensity of runny nose and nasal itching were measured by visual analog scales. For this purpose a patient diary was used.

[3] = target: T1, human neutrophil elastase (HNE) (Homo sapiens, UniProt P08246); test: Inhibition of AAPV conversion by human neutrophil elastase (photometric, 405 nm); format: biochemical
T1 sequence (P08246 30-267): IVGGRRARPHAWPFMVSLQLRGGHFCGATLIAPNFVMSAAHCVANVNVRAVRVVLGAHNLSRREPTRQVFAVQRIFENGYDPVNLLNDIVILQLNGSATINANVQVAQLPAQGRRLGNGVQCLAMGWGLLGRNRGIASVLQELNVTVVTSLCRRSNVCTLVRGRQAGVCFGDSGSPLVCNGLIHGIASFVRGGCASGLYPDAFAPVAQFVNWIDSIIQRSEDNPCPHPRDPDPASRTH
Procedure: Measurement of AAPV conversation occurred spectrophotometrically at a wavelength of 405 nm.
HNE was incubated together with the synthetic substrate N-methoxysuccinyl-Ala-Ala-Pro-Val-p-nitroanilide (AAPV). Conversion of AAPV was then determined photometrically at 405 nm. The following incubation scheme was used: • Sample 1) HNE IN D2O with AAPV in D2O; • Sample 2) HNE in D2O with AAPV in H2O; • Sample 3) HNE in H2O with AAPV in D2O; • Control: HNE in H2O with AAPV in H2O.
The enzyme and substrate were each incubated for 60 minutes with H2O or D2O before HNE and AAPV were added together. The amount of D2O in the experiments was varied over a range from 10 to 100% in order to detect the dependence of inhibition of AAPV conversion by HNE.
A half-maximum effective dose was determined at a D2O content of about 40 vol %. At 100% D2O in the mixture an inhibition of AAPV conversion of about 70% was achieved.

What does the source list for `[2H]O[2H]` [D2O, deuterium oxide]?
degradation of the recombinant BP180 antigen [1]: inhibited; inhibition of acute lung damage caused by elastase (hemorrhage) (Syrian Gold hamsters; D2O aerosol 24 hours, from reduction in hemoglobin concentration vs H2O aerosol control group): 60%; average hemoglobin value in BAL (Syrian Gold hamsters; continuous D2O aerosol in respiration air for 24 hours after HNE instillation): 120±20 mOD; sneezing attacks, intensity of runny nose and nasal itching (recorded parameters) [2]: significant reduction of the recorded parameters; half-maximum effective dose (D2O content) for inhibition of AAPV conversion ([3]; D2O amount in the mixture of HNE and AAPV, 60 minutes preincubation): about 40 vol %; inhibition of AAPV conversion ([3]; at 100% D2O in the mixture): about 70%
